The source of these data is patent publication US20250262193A1, “Therapeutic Tyrosine Kinase Inhibitors For Multiple Sclerosis and Myasthenia Gravis” (Principia Biopharma Inc., priority 2022, published 2025).

Each structure is given as a SMILES string. Where only a bound is given, the exact number is not on record here.

The conditions of data set [1]: following repeated doses of teriflunomide; cited from earlier work.
In the next data set the target is T1, BCRP (Homo sapiens, UniProt Q9UNQ0).
T1 sequence (Q9UNQ0 1-655): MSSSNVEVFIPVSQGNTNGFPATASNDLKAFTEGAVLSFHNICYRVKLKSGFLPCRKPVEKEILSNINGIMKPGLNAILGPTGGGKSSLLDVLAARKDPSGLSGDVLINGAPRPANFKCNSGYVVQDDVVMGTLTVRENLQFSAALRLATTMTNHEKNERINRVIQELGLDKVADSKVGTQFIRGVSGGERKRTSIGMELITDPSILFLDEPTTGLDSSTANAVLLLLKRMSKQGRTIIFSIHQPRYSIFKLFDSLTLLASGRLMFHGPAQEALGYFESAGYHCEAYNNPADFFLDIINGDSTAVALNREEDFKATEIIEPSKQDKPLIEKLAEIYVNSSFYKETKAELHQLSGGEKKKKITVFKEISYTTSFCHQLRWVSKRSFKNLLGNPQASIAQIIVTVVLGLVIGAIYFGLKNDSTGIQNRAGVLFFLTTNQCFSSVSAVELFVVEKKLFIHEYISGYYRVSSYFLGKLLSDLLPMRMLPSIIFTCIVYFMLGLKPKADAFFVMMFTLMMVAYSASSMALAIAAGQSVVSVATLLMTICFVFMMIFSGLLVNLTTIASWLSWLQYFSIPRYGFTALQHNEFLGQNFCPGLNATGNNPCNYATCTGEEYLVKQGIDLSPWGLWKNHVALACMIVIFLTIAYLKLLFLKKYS
As to conditions: in vitro studies; cited from earlier work.

Data set [2] in a line: Phase 2b dose-finding trial DRI15928 in participants with relapsing multiple sclerosis. It is filed as in vivo, human. As to conditions: for alanine aminotransferase (ALT): 1 participant, normal range 6 to 34 U/L; for time for ALT to return to normal range: treatment continued. From the text:
All safety summaries will be descriptive; no statistical significance tests will be performed on safety data. This includes treatment-emergent adverse events (TEAEs) and other safety information (eg, clinical laboratory evaluations, electrocardiograms [ECGs], and vital signs). TEAEs are defined as adverse events (AEs) that developed or worsened or became serious during the treatment period. These analyses will be based on the safety population, defined as all participants randomly assigned and exposed to study intervention, regardless of the amount of exposure, analyzed according to the treatment actually received. • Two participants had treatment-emergent transient alanine aminotransferase (ALT) increase >3×ULN, 1 during the 30 mg SAR442168 treatment period (at Week 8, 105 U/L [normal range 6 to 34 U/L]) that returned to normal range within 4 days and 1 during the 60 mg SAR442168 treatment period (at Week 4, 107 U/L [normal range 6 to 34 U/L]). The participant in the 60 mg group had slightly elevated ALT at screening (48 U/L) and at baseline (50 U/L); ALT levels returned to the normal range in 8 weeks. Both participants continued study treatment during this period. All other liver enzyme levels for both participants were within normal ranges during the treatment period; one event was assessed as related and one as unrelated to the study drug by the Investigators. Both participants completed the DRI15928 study and successfully rolled over to the LTS follow-up study. • One event of mild petechia in a participant (at Week 8 in the SAR442168 30 mg group) and 2 events of mild microscopic hematuria in 2 male participants (1 event at Week 16 in the SAR442168 30 mg group and 1 event on Day 1 in the SAR442168 60 mg group, with occult blood noted in urine) were reported during the treatment period in the SAR442168 Phase 2b trial. The hematology results were clinically insignificant for all 3 participants from the onset of the events. The participant with mild petechia had benign pigmentary lesions noted during screening, and the event was assessed as related to the study drug by the Investigator. The 2 events of mild microscopic hematuria were assessed as unrelated to the study drug.
The choice of the dose of 60 mg of the BTK inhibitor taken with food is based on the results of a Phase 2b dose-finding trial for tolebrutinib in participants with relapsing multiple sclerosis (DRI15928). See for example, Reich, D. S., et al., Safety and efficacy of tolebrutinib, an oral brain-penetrant BTK inhibitor, in relapsing multiple sclerosis: a phase 2b, randomised, double-blind, placebo-controlled trial. Lancet Neurol, 2021. 20(9): p. 729-738.
There were low numbers of AESIs and PCSAs observed.

A short description of data set [3]: Study TDR16862: up to 240 mg once daily for 14 days under fed conditions, healthy participants. It is filed as in vivo, human. As for the experimental part: (§1) Tolebrutinib is a substrate of the CYP3A4 and CYP2C8 isoenzymes. […] In healthy participants, the potent CYP3A4 and moderate CYP2C8 induction by rifampicin (600 mg once daily for 8 days) decreased tolebrutinib exposure by 6-fold. Therefore, potent and also moderate (based on prediction) CYP3A inducers are not permitted due to their potential to decrease tolebrutinib exposure and efficacy.
(§2) Potent and moderate inducers of CYP3A or potent inhibitors of CYP2C8 hepatic enzymes are not permitted throughout the study (see Appendix 8A [Section 10.8]). • Tolebrutinib: Tolebrutinib is a substrate of the CYP3A4 and CYP2C8 isoenzymes. […] In healthy participants, potent CYP3A4 and moderate CYP2C8 induction by rifampicin (600 mg once daily for 8 days) decreased Tolebrutinib exposure 6-fold (INT16726 study). Therefore, potent and also moderate (based on prediction) CYP3A inducers are not permitted due to their potential to decrease Tolebrutinib exposure and efficacy. See Table 2H for the list of drugs not to be used. • Teriflunomide: Other potent CYP and transporter inducers should be avoided due to their potential to decrease teriflunomide exposure. Rifampicin and other known potent CYP and transporter inducers such as carbamazepine, phenobarbital, phenytoin, avasimibe, lumacaftor, rifapentine, rifabutin, and St John's wort, should be avoided. […]

Another data set has as its target T2, CYP2C8 (Homo sapiens, UniProt P10632).
T2 sequence (P10632 1-490): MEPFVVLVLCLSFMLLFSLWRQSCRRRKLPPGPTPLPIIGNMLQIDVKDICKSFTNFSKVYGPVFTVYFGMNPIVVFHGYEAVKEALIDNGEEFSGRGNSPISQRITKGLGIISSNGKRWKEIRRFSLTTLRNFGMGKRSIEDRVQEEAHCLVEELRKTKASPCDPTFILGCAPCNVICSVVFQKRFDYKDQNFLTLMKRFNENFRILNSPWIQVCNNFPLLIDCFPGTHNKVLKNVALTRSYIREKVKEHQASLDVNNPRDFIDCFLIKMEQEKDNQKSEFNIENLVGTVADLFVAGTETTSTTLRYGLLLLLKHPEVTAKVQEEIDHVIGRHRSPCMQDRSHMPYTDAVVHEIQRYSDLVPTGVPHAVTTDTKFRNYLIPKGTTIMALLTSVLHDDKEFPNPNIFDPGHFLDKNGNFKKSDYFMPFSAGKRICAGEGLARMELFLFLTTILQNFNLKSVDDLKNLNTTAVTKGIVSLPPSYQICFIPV
The experiment in a line: Nonclinical drug metabolism studies (CYP substrate). It is filed as in vitro ADME. The procedure: as §1, §2

In a further data set the target is CYP3A4 (Homo sapiens, UniProt P08684). The description is as above. It is filed as in vitro ADME. The procedure: as §1, §2
CYP3A4, sequence (P08684 whole entry): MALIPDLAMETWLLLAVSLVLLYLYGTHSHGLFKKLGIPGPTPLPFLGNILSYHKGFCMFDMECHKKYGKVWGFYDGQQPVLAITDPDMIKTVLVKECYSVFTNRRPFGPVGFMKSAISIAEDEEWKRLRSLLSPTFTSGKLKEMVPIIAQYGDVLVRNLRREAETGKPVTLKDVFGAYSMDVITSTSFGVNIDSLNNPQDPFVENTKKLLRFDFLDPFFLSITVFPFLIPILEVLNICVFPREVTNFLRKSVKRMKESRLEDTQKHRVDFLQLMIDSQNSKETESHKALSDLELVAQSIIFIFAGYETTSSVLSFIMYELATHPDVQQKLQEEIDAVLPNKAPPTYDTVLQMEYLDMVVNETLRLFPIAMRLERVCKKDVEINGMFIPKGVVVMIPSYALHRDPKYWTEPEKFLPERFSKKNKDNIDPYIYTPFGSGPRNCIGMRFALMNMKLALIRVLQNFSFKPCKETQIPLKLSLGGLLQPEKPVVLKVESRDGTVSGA
The nature of data set [4]: Ongoing Phase 3 and LTS studies: safety (drug-induced liver injury). It is filed as in vivo, human. From the text:
Drug-induced liver injury has been identified in the ongoing tolebrutinib Phase 3 trials. […] Thus, there is a need to mitigate the risk of hepatic injury and provide safe treatment for patients with MS or MG.
All safety summaries will be descriptive; no statistical significance tests will be performed on safety data. This includes treatment-emergent adverse events (TEAEs) and other safety information (eg, clinical laboratory evaluations, electrocardiograms [ECGs], and vital signs). TEAEs are defined as adverse events (AEs) that developed or worsened or became serious during the treatment period. These analyses will be based on the safety population, defined as all participants randomly assigned and exposed to study intervention, regardless of the amount of exposure, analyzed according to the treatment actually received. • Two participants had treatment-emergent transient alanine aminotransferase (ALT) increase >3×ULN, 1 during the 30 mg SAR442168 treatment period (at Week 8, 105 U/L [normal range 6 to 34 U/L]) that returned to normal range within 4 days and 1 during the 60 mg SAR442168 treatment period (at Week 4, 107 U/L [normal range 6 to 34 U/L]). […] All other liver enzyme levels for both participants were within normal ranges during the treatment period; one event was assessed as related and one as unrelated to the study drug by the Investigators. […]

A short description of data set [5]: Drug interaction study INT16726: potent CYP2C8 inhibitor gemfibrozil; CYP3A4/CYP2C8 inducer rifampicin, healthy participants. The format is in vivo, human. As for the experimental part:
as §1, §2

Data set [6] in a line: Blood-brain barrier crossing.
A short description of data set [7]: Drug interaction study INT16385: potent CYP3A4 inhibitor itraconazole, healthy participants. The format is in vivo, human. The note with it: with potent CYP3A4 inhibitor itraconazole 200 mg once daily for 4 days.

Consider `C/C(O)=C(\C#N)C(=O)Nc1ccc(C(F)(F)F)cc1` [teriflunomide], for which the “ethinylestradiol and levonorgestrel exposure” value in data set [1] is given as “Increase”. For the same compound, on BCRP, the “substrate of the efflux transporter BCRP” value is given as “substrate”.
`C=CC(=O)N1CCC[C@@H](n2c(=O)n(-c3ccc(Oc4ccccc4)cc3)c3c(N)nccc32)C1` [tolebrutinib, (R)-1-(1-acryloylpiperidin-3-yl)-4-amino-3-(4-phenoxyphenyl)-1H-imidazo[4,5-c]pyridin-2(3H)-one]: the “alanine aminotransferase (ALT)” value in data set [2] (30 mg treatment period, Week 8) was 105 U/L. Also, in data set [2] (60 mg treatment period, Week 4, 48 U/L at screening, 50 U/L at baseline), the “alanine aminotransferase (ALT)” value worked out at 107 U/L. Besides, the “events of mild microscopic hematuria” value in data set [2] (2 male participants: Week 16 in 30 mg group, Day 1 in 60 mg group, resolved spontaneously) turned out to be 2 events. Further, the cardiac arrhythmia entry in data set [2] (ECG monitoring) is reported as “no clinically significant cardiac arrhythmia was observed”. Besides, in [2] (Phase 2b), the “AESIs and PCSAs observed” value is listed as “low numbers”; the “correlation between dose administered and number of TEAEs” value is recorded as “no correlation”; the new risks identified entry was “no new risks were identified”. For the same compound, in [2] (Phase 2b treatment period), the “most frequently reported infections (≥3 events total)” value is “upper respiratory tract infection, nasopharyngitis, gastroenteritis, and respiratory tract infection”; the severe infections entry was “No severe infections occurred”. In data set [2] (Phase 2b, 1 at 30 mg, 1 at 60 mg), the “participants with treatment-emergent transient ALT increase >3×ULN” value is recorded as “Two”. The “food effect: increase in AUC0-24” value in data set [2] (fed status, Phase 2b PK data) is “approximately 2 fold”. For the same compound, the “events of mild petechia” value in data set [2] (female participant, Week 8, 30 mg group, resolved spontaneously) was “One”. Also, the “cytopenia, including thrombocytopenia and neutropenia” value in [2] (hematologic laboratory results) is on record as “No clinically significant cytopenia”. The “correlation between treatment response and exposure” value in data set [2] (new gadolinium-enhancing T1-hyperintense lesions after 12 weeks of treatment) was “higher exposure was associated with low numbers of new gadolinium-enhancing T1-hyperintense lesions”. Besides, the “time for ALT to return to normal range” value in data set [2] (participant of the 30 mg treatment period) is at most 4 days. Further, in data set [2] (participant of the 60 mg group), the “time for ALT to return to normal range” value worked out at 8 weeks. The “most common events (preferred terms)” value in [2] (tolebrutinib treatment arms, Phase 2b) is “headache, upper respiratory tract infection, and nasopharyngitis”. The “safety and tolerability profile” value in data set [3] is “satisfactory”. Further, the “substrate of CYP2C8 isoenzyme” value on CYP2C8 is given as “substrate”. Also, the “substrate of CYP3A4 isoenzyme” value on CYP3A4 is recorded as “substrate”. In addition, in data set [4] (ongoing Phase 3 and LTS studies, to date), the tolerability result was “generally well tolerated”. The “reversibility of DILI / liver enzyme elevation after treatment discontinuation” value in data set [4] (ongoing Phase 3 trials) is “appear reversible”. The decrease of exposure in data set [5] (potent CYP3A4 and moderate CYP2C8 induction by rifampicin 600 mg once daily for 8 days) is 6 fold. Besides, in data set [5] (with potent CYP2C8 inhibitor gemfibrozil 600 mg twice daily for 6 days), the “increase of AUC exposure” value is given as 8.4 fold. In addition, in [6], the blood-brain barrier crossing result was “crosses the blood-brain barrier”. The “increase of area under the curve (AUC) exposure” value in data set [7] is 1.8 fold.
